According to US20190350940A1, “PLATINUM COMPOUNDS, COMPOSITIONS, AND USES THEREOF” (priority 2015, published 2019):
Values joined by “and” are separate entries in the source; they are usually repeats but may differ in a detail not shown here. Equal entries are not always repeated. “Also recorded” adds a separate entry of the source.

What was measured:
CYP2C8 = CYP2C8 (Homo sapiens, UniProt P10632); assay: CYP inhibition, 2C8; type: in vitro ADME
CYP2C19 = CYP2C19 (Homo sapiens, UniProt P33261); assay: CYP inhibition, 2C19; type: in vitro ADME
CYP2C19, sequence (P33261 whole entry): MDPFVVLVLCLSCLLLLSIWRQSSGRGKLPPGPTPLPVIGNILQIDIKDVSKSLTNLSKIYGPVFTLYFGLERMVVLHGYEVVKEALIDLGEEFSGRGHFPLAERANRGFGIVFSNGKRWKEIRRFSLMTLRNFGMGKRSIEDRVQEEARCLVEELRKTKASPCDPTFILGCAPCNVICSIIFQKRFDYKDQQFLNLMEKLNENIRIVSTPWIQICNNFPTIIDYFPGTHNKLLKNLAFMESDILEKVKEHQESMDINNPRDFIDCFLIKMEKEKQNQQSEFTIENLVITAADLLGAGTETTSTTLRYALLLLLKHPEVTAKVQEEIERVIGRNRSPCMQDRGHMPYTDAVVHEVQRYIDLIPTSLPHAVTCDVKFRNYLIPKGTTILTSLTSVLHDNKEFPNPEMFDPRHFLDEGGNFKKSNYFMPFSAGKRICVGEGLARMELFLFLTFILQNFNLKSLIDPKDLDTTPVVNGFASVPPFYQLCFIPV

female Beagle dogs = assay: Cardiovascular and respiratory effects in Beagle dogs (Compound 8-TX-005); type: in vivo, dog
Procedure: The cardiovascular and respiratory effects of Compound 8 administered IV were evaluated in Beagle dogs (Compound 8-TX-005).

rat plasma = assay: In vitro plasma protein binding, rat plasma (Compound 8-DMPK-008); type: in vitro ADME; details: incubation 10 minutes at 37° C.
CYP2C9 = CYP2C9 (Homo sapiens, UniProt P11712); assay: CYP inhibition, 2C9; type: in vitro ADME
CYP2C9, sequence (P11712 whole entry): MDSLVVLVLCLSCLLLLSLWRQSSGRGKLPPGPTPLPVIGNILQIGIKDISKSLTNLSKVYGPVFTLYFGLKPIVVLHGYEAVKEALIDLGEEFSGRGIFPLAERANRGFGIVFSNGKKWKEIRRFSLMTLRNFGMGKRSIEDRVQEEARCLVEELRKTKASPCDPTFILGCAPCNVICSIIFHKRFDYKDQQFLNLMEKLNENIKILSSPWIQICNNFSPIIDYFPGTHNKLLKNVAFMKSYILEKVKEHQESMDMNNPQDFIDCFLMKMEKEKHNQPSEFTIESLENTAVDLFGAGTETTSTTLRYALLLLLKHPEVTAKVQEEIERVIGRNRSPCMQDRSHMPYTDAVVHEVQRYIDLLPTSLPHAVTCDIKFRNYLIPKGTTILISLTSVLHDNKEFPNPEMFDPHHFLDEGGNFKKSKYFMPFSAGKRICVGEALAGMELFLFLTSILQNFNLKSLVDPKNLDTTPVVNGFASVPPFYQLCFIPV

[1] = system: MIA Paca-2 human pancreatic adenocarcinoma; assay: MIA Paca-2 pancreatic xenograft model; type: in vivo, mouse; details: mouse, in vivo, 10 mg/kg
[2] = system: A2780 human ovarian cancer; assay: A2780 ovarian xenograft model; type: in vivo, mouse; details: mouse, in vivo, 20 mg/kg
Procedure: The effect of Compound 8 on tumor growth inhibition (TGI) was evaluated in the A2780 human ovarian cancer nude mouse (female Crl:NU(NCr)-Foxn1^nu) xenograft model.

CYP2B6 = CYP2B6 (Homo sapiens, UniProt P20813); assay: CYP inhibition, 2B6; type: in vitro ADME
CYP2B6, sequence (P20813 whole entry): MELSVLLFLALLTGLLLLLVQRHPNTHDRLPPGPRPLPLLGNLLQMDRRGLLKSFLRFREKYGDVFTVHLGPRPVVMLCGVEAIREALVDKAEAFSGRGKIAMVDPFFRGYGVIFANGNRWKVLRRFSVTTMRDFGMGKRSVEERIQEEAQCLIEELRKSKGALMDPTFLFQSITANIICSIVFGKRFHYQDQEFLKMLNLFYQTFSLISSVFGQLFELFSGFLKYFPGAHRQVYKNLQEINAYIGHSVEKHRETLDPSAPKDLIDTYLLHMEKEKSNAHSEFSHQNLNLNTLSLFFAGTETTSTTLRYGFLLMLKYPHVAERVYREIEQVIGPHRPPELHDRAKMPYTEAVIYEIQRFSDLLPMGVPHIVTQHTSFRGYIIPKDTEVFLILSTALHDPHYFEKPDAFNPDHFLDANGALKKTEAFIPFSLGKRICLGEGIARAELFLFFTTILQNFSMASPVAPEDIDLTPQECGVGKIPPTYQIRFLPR

[3] = Vial selection: clear versus amber (light versus dark); type: physicochemical; details: 5 mM citrate buffer saline pH about 4, room temperature 24 hours
Procedure: To compare light versus dark conditions, Compound 8 was formulated in 5 mM citrate buffer saline at pH about 4 and placed into two separate vials (one clear and the other amber). The formulations were stored at room temperature for 24 hours and the amount of Impurity 1 and Impurity 2 was observed. From the FIGS. 4 and 5, it can be seen that exposing the Compound 8 solution to light in a clear vial caused an increase in the amount of Impurity 1 in comparison to the solution contained in an amber vial (˜10% Impurity 1 compared to ˜0.75% Impurity 1). […] Also, from these experiments it was concluded that the formation of Impurity 2 is not photosensitive but dependent upon the pH of the formulation.

Calu-6 human NSCLC = assay: Calu-6 lung xenograft model; type: in vivo, mouse; details: mouse, in vivo
Procedure: The effect of Compound 8 was evaluated in the Calu-6 human NSCLC nude mouse (female Crl:NU(NCr)-Foxn1^nu) xenograft model.

Microsomal stability = type: in vitro ADME; details: NADPH-free controls
Description: Microsomal stability could not be performed because negative controls failed. […] This is consistent with literature reports that microsomes contain protein thiols (Liebler D C, Meredith M J, Guengerich F P. Formation of glutathione conjugates by reactive metabolites of vinylidene chloride in microsomes and isolated hepatocytes. Cancer Res 1985; 45(1):186-93, the contents of which are incorporated herein by reference in their entirety), would react with Compound 8. CYP inhibition was studied to determine whether Compound 8 has an inhibitory effect on microsomes.

NCI-H520 human NSCLC = assay: NCI-H520 lung xenograft model; type: in vivo, mouse; details: mouse, in vivo
Procedure: The effect of Compound 8 also was evaluated in the NCI-H520 human NSCLC nude mouse (female CrTac:NCr-Foxn1^nu) xenograft model. […] All treatments were statistically significant compared to vehicle (p<0.0001).

physchem = type: physicochemical; details: for solubility at 1 hr: pH 4, aqueous buffer, thermodynamic from solid, Saturated solubility
Procedure: The formulations were prepared by stirring at room temperature for 1 hr. They were protected from light to minimize the formation of the amine product (Impurity 1) during the formulation.
The drug product process begins by preparation of a chilled, solution of 2.5% mannitol and 5 mM citrate buffer (pH about 4-5) solution to which Compound 8 drug substance is added at concentration of 5 mg/mL. […] The bulk solution is filter (0.2 μm) sterilized, aseptically filled into vials, and lyophilized. To minimize Compound 8 degradation, the bulk solution is maintained chilled and protected from light during processing. Lyophilizing Compound 8 as a dry powder was selected as the best means to minimize hydrolysis during storage. Finally, filter sterilization was chosen as the most benign means to sterilize the drug product.

[4] = Total plasma and plasma ultrafiltrate platinum pharmacokinetics in mouse; type: in vivo
Procedure: Nonclinical studies were performed to evaluate the PK of platinum in plasma after IV administration of Compound 8 in the mouse, rat, and dog. The analyses included platinum levels both in total plasma as well as plasma ultrafiltrate.
Compound 8 was administered in 2 different formulations in mice. The formulation used in pharmacology studies was 5% dimethyl sulfoxide (DMSO)/10% Solutol/Saline, and the formulation used in PK studies was 5 mM citrate pH about 4; this latter formulation is that used in GLP toxicology studies in the rat and is the human clinical formulation.

male rats = assay: Single dose intravenous dose range-finding toxicity study in male rats (Compound 8-TX-001); type: in vivo; details: rat
Procedure: (§1) This study (Compound 8-TX-001) was designed as a dose range finding study to support the dose selection for the repeat-dose IV toxicity GLP study in rats (Compound 8-TX-007).
(§2) The test article, Compound 8, was formulated prior to dosing as a solution in 5 mM citrate buffered saline (0.9% sodium chloride), pH about 4-4.5, at nominal concentrations of 2.7, 1.4, 1.9, and 2.3 mg/mL. Compound 8 was administered via IV injection to groups of 3 animals each at doses of 27, 14, 19, and 23 mg/kg. Dose formulations were all within the acceptance criteria (±10% of target concentration) ranging from 98.8 to 106.2 percent of target concentration. Assessment of toxicity was based on mortality, clinical observations, body weight, and food consumption, and clinical and anatomic pathology.

[5] = as above; type: in vivo; details: male, rat, in vivo, iv, single IV dose, male rats, N=3 per group; read-out: MTD and STD10
Procedure: as §1, §2

CYP2C8, sequence (P10632 whole entry): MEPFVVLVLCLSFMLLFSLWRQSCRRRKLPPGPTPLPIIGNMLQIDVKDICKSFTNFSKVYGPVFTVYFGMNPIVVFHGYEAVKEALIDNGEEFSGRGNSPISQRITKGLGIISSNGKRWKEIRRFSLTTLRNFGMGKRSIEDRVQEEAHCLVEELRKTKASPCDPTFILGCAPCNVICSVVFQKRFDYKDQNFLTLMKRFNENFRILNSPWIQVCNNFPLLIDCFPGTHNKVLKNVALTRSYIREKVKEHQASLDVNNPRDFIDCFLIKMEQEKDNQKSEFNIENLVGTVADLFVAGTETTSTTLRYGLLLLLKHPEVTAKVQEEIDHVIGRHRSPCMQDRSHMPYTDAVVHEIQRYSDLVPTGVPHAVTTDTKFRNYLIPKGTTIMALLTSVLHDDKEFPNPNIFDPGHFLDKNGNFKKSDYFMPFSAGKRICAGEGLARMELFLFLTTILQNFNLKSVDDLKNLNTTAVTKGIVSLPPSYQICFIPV

CC(=O)[O][Pt]([NH2])([NH2])([Cl])([Cl])[O]C(=O)NCCCCCN1C(=O)C=CC1=O [Compound 8]
IC50 (CYP2C8): 680 nM
IC50 (CYP2C19): 2720 nM
Increases in blood pressure (slight, non-dose-dependent) (female Beagle dogs; 6 and 10 mg/kg, between 6 and 12 hours following treatment): 9-16 % above controls
Doses with no observable adverse effects on cardiovascular or pulmonary function (female Beagle dogs; IV, female Beagle dogs): ≤ 10 mg/kg
Doses with no observable adverse effects on cardiovascular or pulmonary function, as HED (female Beagle dogs; IV, female Beagle dogs): ≤ 200 mg/m^2
Test article-related clinical observations (female Beagle dogs; all animals, approximately 24 hours post-dose): observations of vomitus
Mortality, body temperature, heart rate, ECG parameters (PR, RR, QRS, QT, QTc), respiratory rate (female Beagle dogs; single IV injection 6 and 10 mg/kg, female Beagle dogs): did not produce mortality or changes
Protein bound (rat plasma): > 99%
IC50 (CYP2C9): 950 nM
Mean maximal BW loss [1]: 3.7%
Treatment-related adverse effects [1]: No treatment-related adverse effects
Mean maximal BW loss [2]: 7.4%
IC50 (CYP2B6): 582 nM
Amount of Impurity 1 ([3]; amber vial (dark)): ~0.75%
Amount of Impurity 1 ([3]; clear vial (light)): ~10%
Amount of Impurity 2 ([3]; clear vial (light)): 0.5%
Mean maximal BW loss (Calu-6 human NSCLC; 10 mg/kg): 0.9%
Mean maximal BW loss (Calu-6 human NSCLC; 15 mg/kg): 3.2%
Stability in microsome preparations (Microsomal stability): below the limit of quantitation; also recorded: disappeared quickly
Mean maximal BW loss (NCI-H520 human NSCLC; 10 mg/kg): 2.7%
Mean maximal BW loss (NCI-H520 human NSCLC; 15 mg/kg): 11%
solubility at 1 hr (physchem; overall estimate): ~9 mg/mL
solubility at 1 hr (physchem; range of five different lots): 8 to 23 mg/mL
solubility (physchem; pH 4.5, aqueous buffer, Saturated solubility of the drug substance): 16 to 17 mg/mL
Dose (MTD) [4]: 41.8 (MTD) mg/m^2
Mean difference of AUC(0-48h) between the 2 formulations ([4]; in vivo): 5%
Portion of platinum in circulation free in the ultrafiltrate ([4]; in vivo): < 1%
Ultrafiltrate platinum to total ratio at Cmax ([4]; in vivo): 0.06
Ultrafiltrate to total AUC ratio ([4]; in vivo): 0.0056
Plasma free platinum AUC ([4]; in vivo, iv): 20.6 µM·h
Plasma free platinum Cmax ([4]; in vivo, iv): 15.9 µM
Renal function and renal injury (male rats; in vivo, 14 mg/kg): Evidence of reduced renal function and renal injury
Inflammatory response (leukocytes, neutrophils, monocytes, lymphocytes) (male rats; in vivo, 19 mg/kg): Evidence of an inflammatory response
Body weight (male rats; in vivo, 23 mg/kg): Decreases in body weight were noted throughout the study
MTD and STD10 (MTD dose) (male rats; single IV dose, corresponds to 19 mg/kg): 122 mg/m^2 and 120 (MTD*) mg/m^2 and 120 (MTD^1) mg/m^2
MTD [5]: 19 mg/kg
